From patent US20240335490A1, “COMPOSITION FOR PREVENTING OR AMELIORATING LOCOMOTIVE SYNDROME” (DIC Corporation, priority 2021, published 2024)

Legend:
[1] = tested on: male and female subjects who feel a decline in mobility; assay: Joint pain reducing effect questionnaire (0 to 10 scale, pain felt in walking); assay type: in vivo, human; conditions: conclusion from the results of Table 1
Protocol: (§1) Ingredients were mixed at proportions shown in Table 1 below and subjected to tablet molding to produce tableted products in Examples 1 to 3 and Comparative Examples 1 and 2 in the present invention. As the blended ingredients, commercially available products were used. In order to uniform appearance, Blue No. 2 was added to adjust the color. In each of Examples and Comparative Examples, six tableted products were produced such that the daily intake was 1,800 mg.
(§2) Twenty male and female subjects who feel a decline in mobility in their 40s to 70s were divided into five groups of four subjects each. In each group, two tablets in each of Examples 1, 2, and 3 and Comparative Examples 1 and 2 were taken three times a day in the morning, noon, and evening for four weeks. Two weeks and four weeks after the initiation of the test, the following questionnaires were carried out.
An equal-interval scale of 0 to 10 was prepared, and a score of 5 that is the middle means before the initiation of the test or no change, a score closer to 0 means deterioration, and a score closer to 10 means amelioration. The subjects were made to plot the experience evaluation of the joint pain reducing effect in which the subjects felt in walking. Scores plotted by the subjects were considered to be test evaluation.

[2] = tested on: male and female subjects who feel a decline in mobility; assay: Mobility ameliorating effect questionnaire (0 to 10 scale, ease of walking); assay type: in vivo, human; conditions: conclusion from the results of Table 1
Protocol: as §1, §2
An equal-interval scale of 0 to 10 was prepared, and a score of 5 that is the middle means no change, a score closer to 0 means that walking is difficult, and a score closer to 10 means that walking is easy. The subjects were made to plot the experience evaluation. Scores plotted by the subjects were considered to be test evaluation.

phycocyanin
effect on the joint (conclusion in words) [1]: recognized to exert the effect on the joint
mobility ameliorating effect (conclusion in words) [2]: recognized to exert
